In article PMC11413964, “Discovery of 1,3-disubstituted prop-2-en-1-one derivatives as inhibitors of neutrophilic inflammation via modulation of MAPK and Akt pathways” (Journal of Enzyme Inhibition and Medicinal Chemistry, 2024):

Columns and labels:
[1] = test system: fMLF/cytochalasin B (CB)-activated human neutrophils; test: Elastase release in fMLF/CB-activated human neutrophils; assay type: cell-based; conditions: 10 μM compound; cytochalasin B only
[2] = test system: fMLF/cytochalasin B (CB)-activated human neutrophils; test: Superoxide anion generation (ferricytochrome c reduction) in fMLF/CB-activated human neutrophils; assay type: cell-based; conditions: Neutrophil, fMLF/CB stimulation, mean ± SEM (n = 3–5); for inhibition at 10 µM: 10 μM compound
Experimental: (§1) The study involving neutrophils was approved by the Institutional Review Board of Chang Gung Memorial Hospital under IRB number: 201902217A3 and was conducted in accordance with the principles of the Declaration of Helsinki. Healthy volunteers aged 20–35 years provided signed informed consents for blood collection. Isolation of neutrophils was done using dextran sedimentation, Ficoll-Hypaque density gradient centrifugation, and hypotonic haemolysis. For the anti-inflammatory studies, neutrophils were suspended in Hank’s balanced salt solution (HBSS) containing 1 mM Ca^2+ at a pH of 7.4[72].
The reduction of ferricytochrome c was utilised to measure the production of SO anions in activated human neutrophils. […] The neutrophils were then stimulated with fMLF (0.1 μM) and CB (1 μg/mL) for 13 min. […] LY294002 was used as a positive control.

p38 MAPK = test: Immunoblotting of p38 MAPK phosphorylation in fMLF-activated neutrophils; assay type: cell-based, human; conditions: 10 μM for 5 min, then fMLF 0.1 μM for 30 s
Experimental: (§2) Human neutrophils (2.5 × 10^7 cells/mL) were first subjected to DMSO (0.1%, serving as control) or experimental compounds at 37 °C for 5 min. Following this, cells were stimulated with fMLF (0.1 μM) for 30 s. […] Primary antibodies used included those for p38 (1:8000), phospho-p38 (1:3000), JNK (1:3000), phospho-JNK (1:3000), Akt (1:5000), phospho-Akt (Ser-473) (1:2000), ERK (1:8000), phospho-ERK (1:8000), and HRP-linked anti-rabbit IgG, to measure total and phosphorylated forms of MAPK and Akt proteins. The quantitative measurements for all samples were adjusted to correspond with the levels of the total protein present.

Akt = test: Immunoblotting of Akt phosphorylation in fMLF-activated neutrophils; assay type: cell-based, human; conditions: 10 μM for 5 min, then fMLF 0.1 μM for 30 s
Experimental: as §2

[3] = test system: fMLF/cytochalasin B (CB)-activated human neutrophils; test: Elastase release in fMLF/CB-activated human neutrophils; assay type: cell-based; conditions: fMLF/CB stimulation, mean ± SEM (n = 3–5); for inhibition at 10 µM: 10 μM compound
Experimental: as §1
Neutrophils were subsequently stimulated with fMLF (0.1 μM) and CB (0.5 μg/mL) for 13 min. […] LY294002 was used as a positive control.

JNK = test: Immunoblotting of JNK phosphorylation in fMLF-activated neutrophils; assay type: cell-based, human; conditions: 10 μM for 5 min, then fMLF 0.1 μM for 30 s
Experimental: as §2

ERK = test: Immunoblotting of ERK phosphorylation in fMLF-activated neutrophils; assay type: cell-based, human; conditions: 10 μM for 5 min, then fMLF 0.1 μM for 30 s
Experimental: as §2

[4] = test system: fMLF/cytochalasin B (CB)-activated human neutrophils; test: Superoxide anion generation (ferricytochrome c reduction) in fMLF/CB-activated human neutrophils; assay type: cell-based; conditions: 10 μM compound; cytochalasin B only

Compound	melting point	IC50 [2]	inhibition at 10 µM [2]	inhibition at 10 µM ([3]; Homo sapiens, Neutrophil)	also measured
CC(C)(C)C(=O)/C=C/c1ccc([N+](=O)[O-])cc1 [Compound 6, (E)-4,4-Dimethyl-1-(4-nitrophenyl)pent-1-en-3-one]	125 to 126 °C	–	23.3 ± 2.3%	–	Induction of elastase release [1]: induced elastase release
COc1cccc(C(=O)/C=C/c2ccc([N+](=O)[O-])cc2)c1 [Compound 6a, (E)-1-(3-Methoxyphenyl)-3-(4-nitrophenyl)prop-2-en-1-one]	132.3 to 133.3 °C	1230 ± 270 nM	99.69 ± 0.18%	84.5 ± 5.73%	Effect on p38 phosphorylation (p38 MAPK): did not alter the phosphorylation; Effect on Akt phosphorylation (Akt): significantly suppressed phosphorylation; IC50 ([3]; Homo sapiens, Neutrophil): 1370 nM; IC50 [3]: 2220 ± 120 nM; Effect on JNK phosphorylation (JNK): significantly suppressed phosphorylation; Effect on ERK phosphorylation (ERK): did not alter the phosphorylation
O=C(/C=C/c1ccc(Cl)cc1)c1ccc(-c2ccccc2)cc1 [Compound 11a, (E)-1-([1,1′-Biphenyl]-4-yl)-3-(4-chlorophenyl)prop-2-en-1-one]	–	–	–	–	Induction of superoxide anion production [4]: an inducer rather than an inhibitor
CC(C)(C)Oc1ccc(/C=C/C(=O)c2ccc[nH]2)cc1 [Compound 13, (E)-3-(4-(tert-Butoxy)phenyl)-1-(1H-pyrrol-2-yl)prop-2-en-1-one]	116.5 to 118.5 °C	–	–	–	Induction of elastase release [1]: induced elastase release; Induction of superoxide anion production [4]: induced also SO anion generation
COc1cccc(C(=O)/C=C/c2ccccc2Cl)c1 [Compound 18a, (E)-3-(2-Chlorophenyl)-1-(3-methoxyphenyl)prop-2-en-1-one]	117 °C	–	47.6 ± 5.41%	31.3 ± 7.29%	–
COc1ccc(/C=C/C(=O)c2ccccc2C)cc1F [Compound 20, (E)-3-(3-Fluoro-4-methoxyphenyl)-1-(o-tolyl)prop-2-en-1-one]	69 to 70 °C	–	49.8 ± 5.82%	10.6 ± 2.28%	–
COc1ccccc1C(=O)/C=C/c1cccc(Cl)c1 [Compound 21a, (E)-3-(3-Chlorophenyl)-1-(2-methoxyphenyl)prop-2-en-1-one]	96 to 98 °C	3790 ± 690 nM	89.9 ± 2.38%	80.4 ± 4.44%	IC50 ([3]; Homo sapiens, Neutrophil): 5630 ± 510 nM
COc1ccc(C(=O)/C=C/c2cccc(Cl)c2)cc1 [Compound 22a, (E)-3-(3-Chlorophenyl)-1-(4-methoxyphenyl)prop-2-en-1-one]	97 to 99 °C	6600 ± 600 nM	65.2 ± 3.73%	36.1 ± 6.48%	–
O=C(/C=C/c1cc(F)cc(F)c1)c1ccc(Cl)cc1 [Compound 23a, (E)-1-(4-Chlorophenyl)-3-(3,5-difluorophenyl)prop-2-en-1-one]	123.6 to 124 °C	2030 ± 270 nM	96.04 ± 0.09%	83 ± 2.64%	IC50 ([3]; Homo sapiens, Neutrophil): 2320 ± 260 nM
COc1cccc(C(=O)/C=C/c2cc(F)cc(F)c2)c1 [Compound 24a, (E)-3-(3,5-Difluorophenyl)-1-(3-methoxyphenyl)prop-2-en-1-one]	95.2 to 97.2 °C	–	3.12 ± 5.02%	37.1 ± 7.65%	–
COc1ccc(C(=O)/C=C/c2cc(F)cc(F)c2)cc1 [Compound 25a, (E)-3-(3,5-Difluorophenyl)-1-(4-methoxyphenyl)prop-2-en-1-one]	154.3 to 155 °C	4700 ± 600 nM	78.2 ± 9.5%	20.9 ± 3.64%	–
COc1ccc(C(=O)/C=C/c2cc(F)cc(F)c2)cc1OC [Compound 26a, (E)-3-(3,5-Difluorophenyl)-1-(3,4-dimethoxyphenyl)prop-2-en-1-one]	132.8 to 134.8 °C	1560 ± 270 nM	92.4 ± 2.19%	20.2 ± 3.19%	Effect on p38 phosphorylation (p38 MAPK): markedly diminished phosphorylation; Effect on Akt phosphorylation (Akt): did not affect; Effect on JNK phosphorylation (JNK): markedly diminished phosphorylation; Effect on ERK phosphorylation (ERK): markedly diminished phosphorylation
O=C(/C=C/c1ccc2ccccc2n1)c1ccccc1 [Compound 28, (E)-1-Phenyl-3-(quinolin-2-yl)prop-2-en-1-one]	118 to 120 °C	1730 ± 70 nM	106 ± 1.73%	99.1 ± 7.32%	IC50 ([3]; Homo sapiens, Neutrophil): 2170 ± 300 nM
CC(C)(C)C(=O)/C=C/c1ccc(-c2ccccc2)cc1 [Compound 29, (E)-1-([1,1′-Biphenyl]-4-yl)-4,4-dimethylpent-1-en-3-one]	128 to 130 °C	–	2.23 ± 0.94%	–	Induction of elastase release [1]: induced elastase release
CCOc1ccccc1C(=O)/C=C/c1ccc(-c2ccccc2)cc1 [Compound 30, (E)-3-([1,1′-Biphenyl]-4-yl)-1-(2-ethoxyphenyl)prop-2-en-1-one]	98 to 99 °C	–	8.69 ± 2.43%	15.8 ± 2.57%	–

Now from value to compound, other results behind:

melting point	IC50 [2]	Compound	inhibition at 10 µM [2]	inhibition at 10 µM ([3]; Homo sapiens, Neutrophil)	also measured
103 to 104 °C	–	CC(C)(C)C(=O)/C=C/c1ccc(Cl)cc1Cl [Compound 15, (E)-1-(2,4-Dichlorophenyl)-4,4-dimethylpent-1-en-3-one]	43 ± 2.78%	–	Induction of elastase release [1]: induced elastase release
70 to 71 °C	–	Cc1ccc(/C=C/C(=O)C(C)(C)C)cc1F [Compound 18, (E)-1-(3-Fluoro-4-methylphenyl)-4,4-dimethylpent-1-en-3-one]	31.3 ± 4.71%	7.77 ± 0.8%	–
84.6 °C	–	COc1ccc(/C=C/C(=O)C(C)(C)C)cc1F [Compound 19, (E)-1-(3-Fluoro-4-methoxyphenyl)-4,4-dimethylpent-1-en-3-one]	2.87 ± 2.8%	3.9 ± 1.68%	–
85 to 86 °C	–	COc1ccc(C(=O)/C=C/c2ccc(OC)c(F)c2)c(OC)c1 [Compound 21, (E)-1-(2,4-Dimethoxyphenyl)-3-(3-fluoro-4-methoxyphenyl)prop-2-en-1-one]	17.1 ± 3.58%	31.6 ± 5.88%	–
128 to 129 °C	–	COc1ccc(/C=C/C(=O)C(C)(C)C)c(F)c1F [Compound 22, (E)-1-(2,3-Difluoro-4-methoxyphenyl)-4,4-dimethylpent-1-en-3-one]	31.4 ± 3.36%	4.84 ± 2.66%	–
131 to 132 °C	–	COc1cc(F)c(/C=C/C(=O)C(C)(C)C)cc1F [Compound 23, (E)-1-(2,5-Difluoro-4-methoxyphenyl)-4,4-dimethylpent-1-en-3-one]	8.1 ± 1.88%	2.5 ± 1.53%	–
117 to 119 °C	–	CC(C)(C)C(=O)/C=C/c1ccc2ccccc2c1 [Compound 26, (E)-4,4-Dimethyl-1-(naphthalen-2-yl)pent-1-en-3-one]	10.6 ± 3.34%	–	Induction of elastase release [1]: induced elastase release
